Experimental data from article PMC8950706, “Influence of Substitutions in the Binding Motif of Proline-Rich Antimicrobial Peptide ARV-1502 on 70S Ribosome Binding and Antimicrobial Activity” (International Journal of Molecular Sciences, 2022).
Square brackets hold non-standard residues; d marks the D form. Peptide text beside a SMILES is read from it. Ac6c = NC1(C(=O)O)CCCCC1

Legend:
[1] = test system: E. coli BW25113 ∆sbmA ∆mdtM; type: cell-based, Escherichia coli; settings: for Minimal Inhibitory Concentration, 25% MHB2, ∆sbmA ∆mdtM: 25% MHB2, 37 °C; for Minimal Inhibitory Concentration, 25% MHB2, ∆sbmA ∆mdtM / Minimal Inhibitory Concentration, 33% TSB, ∆sbmA ∆mdtM: 20 h, at least duplicates on two days, * once on two days, ** duplicate on one day; for Minimal Inhibitory Concentration, 33% TSB, ∆sbmA ∆mdtM: 37 °C; for Effect of the additional mdtM knockout on antibacterial activity: ∆sbmA ∆mdtM compared with ∆sbmA
Experimental: MIC values were determined using a liquid broth micro dilution assay in sterile 96-well plates (polystyrene F-bottom, Greiner Bio-One GmbH) and a total volume of 100 μL per well. Aqueous peptide solutions (10 g/L) were serially twofold diluted in 25% Mueller-Hinton broth 2 (25% MBH2) or 33% tryptic soy broth (33% TSB) starting at a peptide concentration of 128 mg/L (50 μL/well). Overnight cultures of bacteria grown in 25% MHB2 (or 33% TSB) were diluted 30-fold in 25% MHB2 (or 33% TSB). After an incubation period of 4 h (37 °C, 200 rpm), cells were diluted to 1.5 × 10^7 cfu/mL, based on a McFarland test, and 50 μL were added to each well (final concentration of 7.5 × 10^6 […]). The plates were incubated (37 °C, 20 h) and the optical density was recorded at 595 nm using a microplate reader ([…]^TM, Beckmann Coulter). The MIC was defined as the lowest peptide concentration preventing visible bacterial growth.

E. coli 70S ribosome [2] = experiment: Competitive FP binding screening assay with Cf-ARV-1502 (relative FP); design: species or system E. coli BW25113; settings: for Ribosome Binding (%): competitive ribosome binding against Cf-ARV-1502 (relative FP; values match 1.2 µmol/L peptide), low value = strong competition
Experimental: E. coli 70S ribosomes were prepared using a previously described protocol that was slightly modified. Briefly, E. coli BW25113 was cultivated in Luria-Bertani (LB) medium and cells were harvested after reaching an optical density of ~4 at 600 nm by centrifugation (5000× g, 15 min, 4 °C, Rotor JLA 8.100, Avanti J-20 XP, Beckmann Coulter, Krefeld, Germany). The cell pellets were frozen and stored at −80 °C. Cells were resuspended in ribosome buffer (2 mL/g cells; 20 mmol/L HEPES-KOH, 6 mmol/L MgCl2, 30 mmol/L NH4Cl, 4 mmol/L 2-mercaptoethanol, pH 7.6). Lysozyme (0.25 g/L cell suspension) was added, and the mixture was incubated on ice for 30 min. Cells were disrupted using the bead mill homogenizer FastPrep-24™ 5G (40 s, 4 m/s, 6 cycles, MP Biomedicals Germany GmbH, Eschwege, Germany) and zirconia/silica beads (0.1 mm diameter). The lysate was centrifuged (1500× g, 5 min, 4 °C, Rotor S4180, Allegra 21R, Beckmann Coulter) and the supernatant was incubated with DNase (5 U/mL) on ice for 60 min. The cell debris was removed by two centrifugation steps (16,000× g, 30 min, 4 °C followed by 32,000× g, 60 min, 4 °C, Rotor JA 30.50 Ti, Avanti J-30I, Beckmann Coulter). The ribosome was pelleted by ultracentrifugation (165,000× g, 17 h, 4 °C, Rotor 70 Ti, Optima LE-80K, Beckmann Coulter), resuspended in ribosome buffer (0.1 mL/g pellet), and stored at −80 °C. The ribosome concentration was determined by recording the absorbance of RNA at 260 nm (NanoPhotometer NP80, Implen GmbH, München, Germany) assuming that 1 AU corresponds to a ribosome concentration of 28 nmol/L. The molecular weight of the E. coli 70S ribosome was assumed to be 2.3 MDa.
E. coli 70S ribosomes and Cf-ARV-1502 were incubated with four different concentrations of unlabeled peptides chosen based on the IC50 curves of reference peptide ARV-1502. Each peptide was diluted in ribosome buffer to obtain a concentration of 4.8 µmol/L and transferred to a 384-well-plate. Peptides were then twofold serially diluted in four steps from 4.8 to 0.6 µmol/L (20 µL). The ribosome extract was diluted in ribosome buffer to reach a concentration of 2 µmol/L and 10 µL were added to each well to obtain a final ribosome concentration of 0.5 µmol/L. Plates were centrifuged (2 min, 500× g, Rotor S2096, Allegra^TM 21R, Beckmann Coulter) and incubated at 28 °C for 90 min. Cf-labeled ARV-1502 was added (10 µL; final concentration of 20 nmol/L) and the plates were again centrifuged and incubated (28 °C, 90 min). After incubation, fluorescence polarization was recorded on a […]^TM microplate reader (λex = 485 nm, λem = 535 nm).
On each plate 12 minimum (30 µL ribosome buffer and 10 µL Cf-ARV-1502) and 12 maximum (20 µL ribosome buffer, 10 µL ribosome solution and 10 µL Cf-ARV-1502) control samples were added. Fluorescence polarization of screening samples was normalized to the fluorescence polarization of these control samples. All screening samples were measured in triplicates and the whole experiment was repeated once on another day.

E. coli 70S ribosome [3] = experiment: Competitive fluorescence polarization assay against Cf-ARV-1502 (Ki); type: binding, E. coli BW25113; settings: 20 nmol/L Cf-ARV-1502, 0.5 µmol/L ribosome, 28 °C, 90 min + 90 min, Ki calculated from IC50; for Ki: read-out: Ki (nmol/L), competition with Cf-ARV-1502
Experimental: E. coli 70S ribosomes were prepared using a previously described protocol that was slightly modified. Briefly, E. coli BW25113 was cultivated in Luria-Bertani (LB) medium and cells were harvested after reaching an optical density of ~4 at 600 nm by centrifugation (5000× g, 15 min, 4 °C, Rotor JLA 8.100, Avanti J-20 XP, Beckmann Coulter, Krefeld, Germany). The cell pellets were frozen and stored at −80 °C. Cells were resuspended in ribosome buffer (2 mL/g cells; 20 mmol/L HEPES-KOH, 6 mmol/L MgCl2, 30 mmol/L NH4Cl, 4 mmol/L 2-mercaptoethanol, pH 7.6). Lysozyme (0.25 g/L cell suspension) was added, and the mixture was incubated on ice for 30 min. Cells were disrupted using the bead mill homogenizer FastPrep-24™ 5G (40 s, 4 m/s, 6 cycles, MP Biomedicals Germany GmbH, Eschwege, Germany) and zirconia/silica beads (0.1 mm diameter). The lysate was centrifuged (1500× g, 5 min, 4 °C, Rotor S4180, Allegra 21R, Beckmann Coulter) and the supernatant was incubated with DNase (5 U/mL) on ice for 60 min.
Dissociation and inhibitory constants were determined in black 384-well-plates (Greiner Bio-One GmbH, Frickenhausen, Germany) blocked with 0.5% (w/v) casein in phosphate buffered saline (PBS, 8.8 mmol/L Na2HPO4×12 H2O, 1.2 mmol/L KH2PO4, 0.3 mol/L NaCl, pH 7.4) containing 0.05% (w/v) Tween® 20 (PBST) overnight at 4 °C and washed three times with PBST.
Ribosome solution was added (10 µmol/L) and the plate was incubated after centrifugation (2 min, 500× g, Rotor S2096, Allegra^TM 21R, Beckmann Coulter) at 28 °C for 90 min. Cf-labeled peptide was added (10 µL; final concentration of 20 nmol/L; final ribosome concentration of 0.5 µmol/L) and the plate was centrifuged and incubated again (90 min, 28 °C, dark). […] Kd and IC50 values were calculated by fitting the data with a variable slope parameter [y = min + (max − min)/(1 + (x/Kd) ^−Hill slope) ] using SigmaPlot 13 (Systat Software Inc., San Jose, CA, USA). The obtained IC50 values were used to calculate the Ki values.

[4] = control without unlabeled peptide = 100%, 0.5 µmol/L ribosome, 20 nmol/L Cf-ARV-1502, triplicates, repeated once on another day

SMILES | Minimal Inhibitory Concentration, 25% MHB2, ∆sbmA ∆mdtM [1] | Minimal Inhibitory Concentration, 33% TSB, ∆sbmA ∆mdtM [1] | Effect of the additional mdtM knockout on antibacterial activity [1] | Ribosome Binding (%) (E. coli 70S ribosome [2]) | Ki (E. coli 70S ribosome [3]) | Relative FP at 1.2 µmol/L unlabeled peptide (E. coli 70S ribosome [2]; [4]) | Relative FP at 2.4 µmol/L unlabeled peptide (E. coli 70S ribosome [2]; [4]) | Inhibition of Cf-ARV-1502 binding to the 70S ribosome (in words) (E. coli 70S ribosome [2]; Figure 3: peptide concentration 1.2 µmol/L) | Ki (nmol/L), competition with Cf-ARV-1502 (E. coli 70S ribosome [3])
CC[C@H](C)[C@H](NC(=O)[C@@H](CCCNC(=N)N)NC(=O)[C@H](CCCNC(=N)N)NC(=O)[C@@H]1CCCN1C(=O)[C@@H]1CCCN1C(=O)[C@H](CCCNC(=N)N)NC(=O)[C@@H]1CCCN1C(=O)[C@H](CCCNC(=N)N)NC(=O)[C@@H]1CCCN1C(=O)[C@H](CC(C)C)NC(=O)[C@H](Cc1ccc(O)cc1)NC(=O)[C@@H]1CCCN1C(=O)[C@@H]1CCCN1C(=O)[C@H](CCCCN)NC(=O)[C@H](CC(=O)O)NC(=O)[C@@H](N)C(C)C)C(=O)N[C@@H](Cc1ccc(O)cc1)C(=O)N[C@@H](CC(N)=O)C(=O)N[C@H](CCCNC(=N)N)C(N)=O [Onc112, reference compound] (H-VDKPPYLPRPRPPR[dR]IYN[dR]-NH2; N-terminus and C-terminus assumed) | 64 µg/mL | 128 µg/mL | weakened the activity | 32.1 ± 1.0% | 124 ± 2 nmol/L | – | – | – | –
CC(C)C[C@H](NC(=O)[C@H](Cc1ccc(O)cc1)NC(=O)[C@@H]1CCCN1C(=O)[C@H](CCCNC(=N)N)NC(=O)[C@@H]1CCCN1C(=O)[C@H](CCCCN)NC(=O)[C@H](CC(=O)O)NC(=O)[C@@H]1CCCN1C(=O)[C@H](CCCNC(=N)N)NC(=O)C1(N)CCCCC1)C(=O)N1CCC[C@H]1C(=O)N[C@@H](CCCNC(=N)N)C(=O)N1CCC[C@H]1C(=O)N[C@@H](CCCNC(=N)N)C(=O)N1CCC[C@H]1C(=O)N1CCC[C@H]1C(=O)N[C@@H](CCCNC(=N)N)C(=O)N1CCC[C@H]1C(=O)N[C@H](C(=O)N[C@@H](CCCNC(=N)N)C(N)=O)C(C)C [ARV-1502] (H-[Ac6c]RPDKPRPYLPRPRPPRPVR-NH2) | 64 µg/mL | 128 µg/mL | further decreased | 40.9 ± 3.9% | 135 ± 10 nmol/L | 40.9 ± 3.9% | 32.1 ± 1.3% | – | –
CC(C)C[C@H](NC(=O)[C@H](Cc1ccc(O)cc1)NC(=O)[C@@H]1CCCN1C(=O)[C@H](CCCNC(=N)N)NC(=O)[C@@H]1CCCN1C(=O)[C@H](CCCCN)NC(=O)[C@H](CCCCN)NC(=O)[C@@H]1CCCN1C(=O)[C@H](CCCNC(=N)N)NC(=O)C1(N)CCCCC1)C(=O)N1CCC[C@H]1C(=O)N[C@@H](CCCNC(=N)N)C(=O)N1CCC[C@H]1C(=O)N[C@@H](CCCNC(=N)N)C(=O)N1CCC[C@H]1C(=O)N1CCC[C@H]1C(=O)N[C@@H](CCCNC(=N)N)C(=O)N1CCC[C@H]1C(=O)N[C@H](C(=O)N[C@@H](CCCNC(=N)N)C(N)=O)C(C)C [Peptide 2] (H-[Ac6c]RPKKPRPYLPRPRPPRPVR-NH2; N-terminus and C-terminus assumed) | – | – | no effect | 40.3 ± 2.2% | – | – | – | did not reduce the competition with Cf-ARV-1502 | did not alter the Ki value
